Measurements reported in US12422427B2, “Compounds for treatment of diseases and methods of screening therefor” (Max-Planck-Gesellschaft zur Förderung der Wissenschaften …, priority 2018, dated 2025).

Columns and labels:
[1] = tested on: iPS MNs expressing P525L FUS; assay: Axon dieback of iPS-derived motor neurons expressing P525L FUS; format: cell-based, human; settings: 2 μM in culture medium, 60 days
Source text: In humans, one cause of familial ALS is FUS mutation, particularly in the C terminal NLS. P525L is one such mutation, and iPSC-derived motor neurons (iPSC MNs) expressing P525L from ALS patients show defects consistent with motor neuron defects in the patient. iPSC MNs can be grown through silicone channels, positioning the soma on one side with the axons protruding through the channels to the far side. Such cultures can be maintained for long periods (>60 days). However, when expressing P525L FUS, the axons die back within this time period without exogenous cell stressors, although P525L FUS MNs have a greater propensity to form stress granules. This is similar to axon retraction leading to motor dysfunction in patients. Therefore whether lipoamide or lipoic acid was able to improve these phenotypes was tested. […] To test this the inventors analysed transport of lysosomes within the axons of iPS MNs expressing P525L FUS with or without lipoamide in comparison to iPS MNs expressing WT FUS (FIGS. 12A-12B). […]
For analysis of axon dieback transport AH-ALS1-F58 iPS MNs expressing P525L FUS or an isogenic control expressing WT FUS were grown with 2 μM compound or an equal volume of DMSO for 60 days. […] Experiments and analysis were performed blinded, and axonal dieback was scored qualitatively using phase contrast images captured every 10 to 20 days.

[2] = tested on: HeLa cells expressing FUS GFP; assay: HeLa cell compound dose responses (FUS GFP, arsenate stress); format: cell-based
G156E FUS GFP = target: T1, G156E FUS GFP (Homo sapiens, UniProt P35637, G156E); assay: In vitro FUS GFP solidification (aging, fibre formation, FRAP); format: biochemical; settings: for fibre formation of G156E FUS / hardening of FUS droplets (FRAP mobile fraction): 30 μM, aging while shaking, 1 mM DTT
T1 construct: His MBP (N, cleaved yes); made in house; host or cells: baculovirus/insect cell expression system
T1 sequence (P35637 1-526 G156E): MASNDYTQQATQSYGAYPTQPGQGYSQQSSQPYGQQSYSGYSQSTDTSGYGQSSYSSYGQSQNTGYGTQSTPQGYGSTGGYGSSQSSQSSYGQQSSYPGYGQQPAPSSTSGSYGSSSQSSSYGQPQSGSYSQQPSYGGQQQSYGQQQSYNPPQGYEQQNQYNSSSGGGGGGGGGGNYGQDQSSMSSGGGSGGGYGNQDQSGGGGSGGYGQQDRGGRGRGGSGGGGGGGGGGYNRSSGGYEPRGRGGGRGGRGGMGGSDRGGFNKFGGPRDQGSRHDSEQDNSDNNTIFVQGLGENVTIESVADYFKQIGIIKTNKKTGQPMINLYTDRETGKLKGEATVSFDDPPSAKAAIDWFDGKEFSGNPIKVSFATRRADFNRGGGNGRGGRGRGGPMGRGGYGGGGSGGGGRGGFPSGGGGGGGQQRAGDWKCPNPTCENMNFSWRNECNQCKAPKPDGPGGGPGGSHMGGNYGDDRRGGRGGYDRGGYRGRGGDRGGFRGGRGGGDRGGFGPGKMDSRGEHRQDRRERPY
Description: Therefore, hardening and fibre formation, another kinetic phenomenon, were analysed. In vitro FUS droplets ‘age’ over time, first hardening then tending to form amyloid/prion-like fibres. This is accelerated for G156E FUS, a mutation associated with familial ALS.
For in vitro solidification assays, FUS GFP in storage buffer was diluted in water to give 10 μM FUS, 50 mM Tris·HCl pH 7.4 and 1 mM DTT in a 20 μl volume in non-binding clear bottom 384 well plates (Greiner Bio-One, 781906). […] Fibre and droplet formation were analysed by widefield epifluorescence using a DeltaVision Elite microscope (GE Healthcare Life Sciences) with a Plan ApoN 60× NA 1.4 oil immersion objective (Olympus) and an sCMOS camera (PCO). For salt sensitivity of droplet formation FUS GFP in storage buffer was diluted in the appropriate concentration of KCl pre-mixed with compound or DMSO to generate the final KCl concentration series with 30 μM compound concentration and 0.3% DMSO.
Fluorescence recovery after photobleaching (FRAP) of FUS GFP droplets and fibres was performed on a Nikon TiE inverted microscope with a Nikon Apo 100× NA 1.49 oil immersion objective using a Yokogawa CSU-X1 spinning disc head and an Andor iXon EM+ DU-897 EMCCD camera. 10×10 px regions were bleached for […] with a 6 mW 405 nm laser using an Andor FRAPPA beam delivery unit then imaged for 5 min at 5 Hz. Recovery curve half-life and mobile fraction were calculated in ImageJ.

[3] = in vivo; cited from earlier work
[4] = 1 h pre-treatment, 1 h arsenate stress

Structure (SMILES) | axon die back [1] | EC50 reducing stress granule number, compared among compounds ([2]; 1 h 1 mM arsenate stress) | nuclear/cytoplasm FUS partition, dose response [2, 4] | stress granule number, dose response [2, 4] | EC50 ([2]; Homo sapiens, HeLa FUS GFP, 1 h 1 mM arsenate stress, read-out: cellular EC50) | FRAP of aged G156E FUS GFP condensates (G156E FUS GFP; 10 μM lipoamide, dextran crowding, vs 0.1% DMSO) | fibre formation of G156E FUS (G156E FUS GFP) | hardening of FUS droplets (FRAP mobile fraction) (G156E FUS GFP) | toxicity [3]
NC(=O)CCCCC1CCSS1 (racemic) [lipoamide, 5-(1,2-dithiolan-3-yl)pentanamide] | prevented such die back | comparable EC50 | increased nuclear/cytoplasm FUS partition | reducing the number of stress granules | ~10 µM | maintain large FUS GFP mobile fraction and short FRAP half-life | delayed fibre formation | delayed hardening of FUS droplets | non-toxic
O=C(O)CCCCC1CCSS1 (racemic) [lipoic acid, 5-(1,2-dithiolan-3-yl)pentanoic acid] | prevented such die back | comparable EC50 |  |  |  |  | delayed fibre formation | delayed hardening of FUS droplets | non-toxic
